Patent US20200331882A1, “COMPOUND FOR SIMULTANEOUSLY INHIBITING LSD1 AND HDAC TARGETS AND APPLICATION THEREOF” (PEKING UNIVERSITY SHENZHEN GRADUATE SCHOOL, priority 2018, published 2020)

Tests used:
[1] = molecular target: T1, recombinant human LSD1 protein (Homo sapiens, UniProt O60341); experiment: In vitro LSD1 inhibitory activity, LSD1-HRP coupling reaction (Amplex Red); assay type: biochemical; conditions: LSD1 enzyme activity in vitro; 30 min preincubation; H3K4Me2 peptide
T1 construct: made in house; host or cells: E. coli
From the text: LSD1 activity was detected by using LSD1-HRP coupling reaction. […] During the reduction of H2O2 to H2O, Amplex Red acts as an electron donor and oxidizes to Resorufin for detection of fluorescence. […] Ampliflu™ Red, peroxidase, from horseradish required for the experiment was purchased from SIGMA; H3K4Me2 substrate peptide was purchased from GL Biochemical (Shanghai) Co., Ltd.

[2] = tested on: mouse colon cancer cell CT26.WT; experiment: MTT tumor cell proliferation; assay type: cell-based; conditions: Mus musculus, 72 h
From the text: (§1) MTT colorimetric method was used to detect the inhibitory activity of a series of compounds (i.e. ZZY-001 to ZZY-016, a total of 16 kinds) of the embodiment of the present invention on the proliferation of tumor cells in vitro. The full name of MTT is 3-(4,5-dimethyl-2-thiazolyl)-2,5-diphenyl-2-H-tetrazolium romide, which is a yellow dye also known as thiazolyl blue. […] DMSO can dissolve Formazan deposited in cells and the absorbance value can be measured with a enzyme marker at a wavelength of 490 nm. In a certain range of cell number, the production of Formazan is proportional to the number of cells, so the number of living cells can be inferred according to the measured OD value.
(§2) The cell suspension was inoculated on a 96-well plate at 100 μl/well and cultured in a constant temperature CO2 incubator for 24 h. Then the tested drugs were added, 100 μl/well, and cultured for 72 h. MTT was added to a 96-well plate, 20 μl/well, and reacted for 4 h in the incubator. Absorb the supernatant, add DMSO, 150 μl/well and shake for 10 min on the plate shaker. The optical density (OD value) of each well was measured by enzyme marker at the wavelength of 490 nm.

[3] = tested on: human colon adenocarcinoma cell HCT116; experiment: MTT tumor cell proliferation; assay type: cell-based; conditions: Homo sapiens, HCT-116, 72 h
From the text: as §1, §2

[4] = tested on: human breast cancer cell line MDA-MB-231; experiment: MTT tumor cell proliferation; assay type: cell-based; conditions: Homo sapiens, 72 h
From the text: as §1
In the experiments of this embodiment, the selected cell lines are human breast cancer cell line MDA-MB-231 and BT-474, human colon adenocarcinoma cell HCT116, mouse colon cancer cell CT26.WT, mouse breast cancer cell 4T1. During the test, the cells in logarithmic phase and in good condition were digested with 0.25% trypsin digestion solution to make the adherent cells fall off, and the cell suspension (suspension cells without trypsin digestion) was made by counting 2-4×10^4 cells/ml. The cell suspension was inoculated on a 96-well plate at 100 μl/well and cultured in a constant temperature CO2 incubator for 24 h. Then the tested drugs were added, 100 μl/well, and cultured for 72 h. MTT was added to a 96-well plate, 20 μl/well, and reacted for 4 h in the incubator. Absorb the supernatant, add DMSO, 150 μl/well and shake for 10 min on the plate shaker. The optical density (OD value) of each well was measured by enzyme marker at the wavelength of 490 nm. […]

HDAC1 = molecular target: T2, HDAC1 (Homo sapiens, UniProt Q13547); experiment: In vitro HDAC1 inhibitory activity, FLUOR DE LYS HDAC1 fluorometric assay kit; assay type: biochemical; conditions: HDAC1 enzyme activity in vitro
T2 construct: purchased Enzo Biochem Inc
From the text: The principle was shown in the following reaction formula: HDAC1 catalyzes the deacetylation of a substrate FLUOR DE LYS® Substrate (containing an acetylated side chain), the product can react with FLUOR DE LYS® Developer II to generate fluorescence (shown in the following reaction process), and the inhibitory activity of a molecule to be detected on HDAC1 can be indirectly obtained by detecting the fluorescence intensity of the product. In this experiment, 360 nm was selected as the excitation wavelength and 460 nm as the emission wavelength for detection. FLUOR DE LYS® HDAC1 fluorometric drug discovery assay kit required for experiments was purchased from Enzo Biochem Inc.
During the test, the sample was prepared according to the specific experimental conditions of blocking the HDAC1 enzyme activity of the compound of the present invention in vitro in accordance with Table 2 below.

T2 sequence (Q13547 whole entry): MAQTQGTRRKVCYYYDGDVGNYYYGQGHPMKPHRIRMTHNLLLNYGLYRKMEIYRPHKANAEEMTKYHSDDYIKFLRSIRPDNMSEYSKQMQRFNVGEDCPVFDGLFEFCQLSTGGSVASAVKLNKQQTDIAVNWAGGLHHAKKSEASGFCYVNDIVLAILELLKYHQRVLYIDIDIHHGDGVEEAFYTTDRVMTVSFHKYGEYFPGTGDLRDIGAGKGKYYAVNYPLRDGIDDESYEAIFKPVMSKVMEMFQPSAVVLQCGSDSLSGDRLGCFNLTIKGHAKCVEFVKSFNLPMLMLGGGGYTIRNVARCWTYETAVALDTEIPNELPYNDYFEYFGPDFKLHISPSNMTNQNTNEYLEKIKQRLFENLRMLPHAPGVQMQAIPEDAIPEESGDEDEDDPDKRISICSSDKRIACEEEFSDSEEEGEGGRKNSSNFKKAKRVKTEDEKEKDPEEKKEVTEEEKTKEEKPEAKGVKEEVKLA

Work on `Cc1ccc(C(=O)Nc2cc(N3CCNCC3)ccc2-c2ccc(/C=C/C(=O)NO)cc2C)cc1.Cl` [ZZY-003] yielded an IC50 [1] of 440 nM, an IC50 [2] of 8760 nM and an IC50 [3] of 265 nM. It also gave an IC50 [4] of 836 nM and an IC50 (HDAC1) of 180 nM.
